Laboratory results reported in US12584896B2, “Process for quantification of metal amino acid chelates in solutions and solids” (Premex, Inc., priority 2018, dated 2026).

Assay: pKa's of phytic acid (ionization of phosphate groups)
Assay type: physicochemical
Text: A liquid sample was reacted with phytic acid. The reaction between the compounds and the phytic acid was at a pH of 3.0. Phytic acid ionization began via phosphates group in the following order: (a) P1, and P3 at a pH of from about 1.5 to about 2.0; (b) P4 and P6 at a pH of from about 2.0 to about 2.5; (c) P2 and at a pH of about 2 .5; and (d) P5 at a pH of from about 3.0 to about 5.0 (see FIGS. 1 and 2).

pKa: 9.3
SMILES: O=P(O)(O)O[C@H]1[C@H](OP(=O)(O)O)[C@@H](OP(=O)(O)O)[C@H](OP(=O)(O)O)[C@@H](OP(=O)(O)O)[C@H]1OP(=O)(O)O [phytic acid]
